From patent US5998376A, “Substance P treatment for immunostimulation” (priority 1998, dated 1999)

Columns and labels:
[1] = test system: spleen, thymus and bone marrow cells; assay: Substance P aerosol therapy in JP-8 jet fuel exposed mice, cell numbers (FIGS. 1-3); type: in vivo, C57BL6 mice
Excerpt: Since mice are nose-breathers, they were exposed to the aerosol/vapor mixture via nose-only presentation while they were held in individual loading tubes. The tubes were nose-fitted to receiving adaptors that originated from the common anodized aluminum exposure chamber (volume 0.3 m^3, IN-TOX, Albuquerque, N.Mex.). Noses were positioned in the exposure ports to minimize systemic absorption that might occur during total body exposure or through the process of self-grooming after exposure. The mice were rotated on a daily basis through the 24-adaptor positions of the exposure chamber. This was done to minimize proximity to the jet fuel source as a variable in exposure concentration or composition. Passive entrainment of the jet fuel aerosol/vapor mix and room air through the IN-TOX chamber was conducted by vacuum (15 liters/min). The vacuum was applied to the exposure chamber on the side opposite the fuel source. Animal exposure ports not in use were sealed during the exposure period. Longitudinal controls were sham-exposed in a manner identical to those receiving jet fuel, except that only room air was introduced into the exposure chamber. The exposure chamber was thoroughly cleaned prior to the longitudinal control group's exposure.
The substance P aerosol therapy was performed at the completion of the JP-8 jet fuel exposure. The nebulizer was modified with clean hoses and a new sonication crucible. […] The substance P aerosol therapy was conducted for the same seven day period over a total time period of nine days as the JP-8 jet fuel exposure regimen.

[2] = test system: lymphocyte subpopulations; assay: Flow cytometric analyses (FACS) of immune organs, JP-8 exposed mice; type: in vivo, C57B16 mice
Method: At 24 hours after the last exposure, the animals were sacrificed and the effects of exposure on the immune system examined. Immune organs (spleen, thymus, blood, lymph nodes and bone marrow) were recovered and analyzed for effects on organ weight, total cell numbers, immune cell populations (by differentials), and lymphocyte subpopulations (by flow cytometry). Assays were also performed to examine the effects of exposure on immune function. […] Similar effects on immune cell subpopulations were also observed in lymph nodes. In the thymus it appeared that the immature CD4^+ CD8^+ cells were differentially lost due to exposure. […] However, these effects are prevented or ameliorated by treatment of the animals with Substance P.
Flow cytometric analyses (FACS): One- and two-color FACS analyses are performed using a Becton-Dickinson FACStar Plus flow cytometer. Cells are stained with the indicated monoclonal antibodies according to standard procedures (Harris et al., id). Cells alone and cells reacted with conjugated isotype control, irrelevant mAbs are used as controls. Data is presented as the percentage of cells staining positive for each individual mAb.

[3] = JP-8 exposed mice, one micromolar aerosol 15 minutes
[4] = JP-8 dose 0 + SP or antagonist aerosol
[5] = JP-8 dose 1000 + SP or antagonist aerosol
[6] = JP-8 dose 1000 + nSP (1 nanomolar substance P)

Substance P [SP]
effect on spleen cell number (FIG. 1) ([1]; JP-8 500 or 2500 mg/m^3, 1 hour/day 7 days, one micromolar aerosol 15 minutes after each exposure): totally reverse the effect of the jet fuel on the spleen cell number
effect on bone marrow cells (FIG. 3) [1, 3]: augments the stimulation substantially
effect on thymus cell number (FIG. 2) [1, 3]: substantially reverses the effect on cell number
BM CD3, cells staining positive [2, 4]: 12%
BM CD4, cells staining positive [2, 4]: 11%
BM CD8, cells staining positive [2, 4]: 1%
BM CD45, cells staining positive [2, 4]: 48%
Spleen CD3, cells staining positive [2, 4]: 42%
Spleen CD4, cells staining positive [2, 4]: 26%
Spleen CD8, cells staining positive [2, 4]: 11%
Spleen CD45, cells staining positive [2, 4]: 23%
Spleen MAC1, cells staining positive [2, 4]: 1%
Thymus CD3, cells staining positive [2, 4]: 10%
Thymus DN, cells staining positive [2, 4]: 7%
Thymus DP, cells staining positive [2, 4]: 84%
Thymus SP4, cells staining positive [2, 4]: 6%
Thymus SP8, cells staining positive [2, 4]: 2%
BM CD3, cells staining positive ([2]; JP-8 dose 250 + SP aerosol): 13%
BM CD4, cells staining positive ([2]; JP-8 dose 250 + SP aerosol): 10%
BM CD8, cells staining positive ([2]; JP-8 dose 250 + SP aerosol): 3%
BM CD45, cells staining positive ([2]; JP-8 dose 250 + SP aerosol): 48%
BM MAC1, cells staining positive ([2]; JP-8 dose 250 + SP aerosol): 10%
LN CD3, cells staining positive ([2]; JP-8 dose 250 + SP aerosol): 85%
LN CD4, cells staining positive ([2]; JP-8 dose 250 + SP aerosol): 48%
LN CD8, cells staining positive ([2]; JP-8 dose 250 + SP aerosol): 12%
LN CD45, cells staining positive ([2]; JP-8 dose 250 + SP aerosol): 13%
LN MAC1, cells staining positive ([2]; JP-8 dose 250 + SP aerosol): 1%
PBL CD3, cells staining positive ([2]; JP-8 dose 250 + SP aerosol): 59%
PBL CD4, cells staining positive ([2]; JP-8 dose 250 + SP aerosol): 15%
PBL CD8, cells staining positive ([2]; JP-8 dose 250 + SP aerosol): 6%
PBL CD45, cells staining positive ([2]; JP-8 dose 250 + SP aerosol): 16%
PBL MAC1, cells staining positive ([2]; JP-8 dose 250 + SP aerosol): 1%
Spleen CD3, cells staining positive ([2]; JP-8 dose 250 + SP aerosol): 62%
Spleen CD4, cells staining positive ([2]; JP-8 dose 250 + SP aerosol): 27%
Spleen CD8, cells staining positive ([2]; JP-8 dose 250 + SP aerosol): 3%
Spleen CD45, cells staining positive ([2]; JP-8 dose 250 + SP aerosol): 21%
Spleen MAC1, cells staining positive ([2]; JP-8 dose 250 + SP aerosol): 1%
Thymus CD3, cells staining positive ([2]; JP-8 dose 250 + SP aerosol): 24%
Thymus DN, cells staining positive ([2]; JP-8 dose 250 + SP aerosol): 5%
Thymus DP, cells staining positive ([2]; JP-8 dose 250 + SP aerosol): 68%
Thymus SP4, cells staining positive ([2]; JP-8 dose 250 + SP aerosol): 22%
Thymus SP8, cells staining positive ([2]; JP-8 dose 250 + SP aerosol): 5%
BM CD3, cells staining positive [2, 5]: 14%
BM CD4, cells staining positive [2, 5]: 9%
BM CD8, cells staining positive [2, 5]: 2%
BM CD45, cells staining positive [2, 5]: 31%
BM MAC1, cells staining positive [2, 5]: 26%
LN CD3, cells staining positive [2, 5]: 86%
LN CD4, cells staining positive [2, 5]: 29%
LN CD8, cells staining positive [2, 5]: 11%
LN CD45, cells staining positive [2, 5]: 22%
LN MAC1, cells staining positive [2, 5]: 0%
PBL CD3, cells staining positive [2, 5]: 61%
PBL CD4, cells staining positive [2, 5]: 23%
PBL CD8, cells staining positive [2, 5]: 10%
PBL CD45, cells staining positive [2, 5]: 22%
PBL MAC1, cells staining positive [2, 5]: 3%
Spleen CD3, cells staining positive [2, 5]: 34%
Spleen CD4, cells staining positive [2, 5]: 18%
Spleen CD8, cells staining positive [2, 5]: 10%
Spleen CD45, cells staining positive [2, 5]: 20%
Spleen MAC1, cells staining positive [2, 5]: 5%
Thymus CD3, cells staining positive [2, 5]: 20%
Thymus DN, cells staining positive [2, 5]: 10%
Thymus DP, cells staining positive [2, 5]: 65%
Thymus SP4, cells staining positive [2, 5]: 16%
Thymus SP8, cells staining positive [2, 5]: 6%
BM CD3, cells staining positive [2, 6]: 13%
BM CD4, cells staining positive [2, 6]: 10%
BM CD8, cells staining positive [2, 6]: 3%
BM CD45, cells staining positive [2, 6]: 43%
BM MAC1, cells staining positive [2, 6]: 16%
LN CD3, cells staining positive [2, 6]: 95%
LN CD4, cells staining positive [2, 6]: 42%
LN CD8, cells staining positive [2, 6]: 25%
LN CD45, cells staining positive [2, 6]: 23%
LN MAC1, cells staining positive [2, 6]: 0%
PBL CD3, cells staining positive [2, 6]: 78%
PBL CD4, cells staining positive [2, 6]: 25%
PBL CD8, cells staining positive [2, 6]: 8%
PBL CD45, cells staining positive [2, 6]: 29%
PBL MAC1, cells staining positive [2, 6]: 2%
Spleen CD3, cells staining positive [2, 6]: 60%
Spleen CD4, cells staining positive [2, 6]: 15%
Spleen CD8, cells staining positive [2, 6]: 5%
Spleen CD45, cells staining positive [2, 6]: 41%
Spleen MAC1, cells staining positive [2, 6]: 1%
Thymus CD3, cells staining positive [2, 6]: 25%
Thymus DN, cells staining positive [2, 6]: 7%
Thymus DP, cells staining positive [2, 6]: 69%
Thymus SP4, cells staining positive [2, 6]: 16%
Thymus SP8, cells staining positive [2, 6]: 7%
BM CD3, cells staining positive ([2]; JP-8 dose 2500 + SP aerosol): 6%
BM CD4, cells staining positive ([2]; JP-8 dose 2500 + SP aerosol): 3%
BM CD8, cells staining positive ([2]; JP-8 dose 2500 + SP aerosol): 6%
BM CD45, cells staining positive ([2]; JP-8 dose 2500 + SP aerosol): 24%
BM MAC1, cells staining positive ([2]; JP-8 dose 2500 + SP aerosol): 34%
Spleen CD3, cells staining positive ([2]; JP-8 dose 2500 + SP aerosol): 38%
Spleen CD4, cells staining positive ([2]; JP-8 dose 2500 + SP aerosol): 26%
Spleen CD8, cells staining positive ([2]; JP-8 dose 2500 + SP aerosol): 14%
Spleen CD45, cells staining positive ([2]; JP-8 dose 2500 + SP aerosol): 31%
Spleen MAC1, cells staining positive ([2]; JP-8 dose 2500 + SP aerosol): 3%
Thymus CD3, cells staining positive ([2]; JP-8 dose 2500 + SP aerosol): 16%
Thymus DN, cells staining positive ([2]; JP-8 dose 2500 + SP aerosol): 19%
Thymus DP, cells staining positive ([2]; JP-8 dose 2500 + SP aerosol): 64%
Thymus SP4, cells staining positive ([2]; JP-8 dose 2500 + SP aerosol): 15%
Thymus SP8, cells staining positive ([2]; JP-8 dose 2500 + SP aerosol): 5%
